Data from US9243281B2, “Neuroprotective chemicals and methods for identifying and using same” (Board of Regents of The University of Texas System, priority 2013, dated 2016).

Tests used:
[1] = test system: hippocampal neurogenesis (Dentate Gyrus); assay: in vivo neurogenesis assay (BrdU+ cells in dentate gyrus); design: species or system mice; conditions: living mice; vehicle (DMSO) 7.3
How it was run: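 Pools of ten compounds infused into the left ventricle of two adult mice per pool via cannula and mini-pump over one week, aimed at mid-nanomolar levels. Daily BrdU co-injected; brain sections stained for BrdU to count new dentate gyrus cells.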

p70 (NAMPT) = biological target: T1, p70 (NAMPT) (Homo sapiens, UniProt P43490); assay: binding competition for photo-crosslinking of P7C3-S326 to p70 in H2122 cells; conditions: 0.3 μM P7C3-S326 plus 5 μM competitor, p70 band intensity, P7C3-S326 alone compared with plus competitor, vehicle 1.0
T1 construct: endogenous in cells; host or cells: H2122 lung cancer cells
How it was run: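 H2122 cells were co-treated with 0.3 μM P7C3-S326 and 5 uM competing P7C3 analogs for 2 hours at 37° C, then UV-crosslinked at 306 nm for 15 minutes. Lysates were clicked to a fluorescent dye and run on SDS-PAGE. The p70 band was quantified relative to the DMSO control.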

[2] = test system: hippocampal neurogenesis (Dentate Gyrus); conditions: cited from earlier work
[3] = mice; IP, IV or oral routes; cited from earlier work
[4] = mice and rats, concentrations well above those required to stimulate hippocampal neurogenesis; cited from earlier work
aged Fisher rats = conditions: cited from earlier work
U2OS cells = assay: doxorubicin toxicity (dox:tox) protection assay, Cell Titer Glo cell survival; format: cell-based; conditions: cultured U2OS cells
Description: FIGS. 2A-2D. […] (FIG. 2A) Chemical structure of P7C3-S326. […] (FIG. 2C) Formulas used for calculating doxorubicin toxicity (dox:tox) protection activity. Protection activity is expressed by (Sinf−S0)/AC50 in the twelve-point dose response curve (DRC) corresponding to each compound, wherein both efficacy and potency of compounds were considered. Sinf represents the expected maximal protection. S0 is the baseline. […] In the photo-crosslinking assays, the p70 band intensity was quantified by Image J, and compared the sample of P7C3-S326 alone with that of P7C3-S326 plus competitor. Pearson correlation coefficient (r) and two tailed P value were determined by GraphPad Prism 6 and Spearman Rank Correlation (v1.0.1) software.
FIG. 10. Twelve-point dose response curves (DRC) of all tested compounds in doxorubicin toxicity protection assay. […] Cell viability was determined by Cell Titer Glo assay kit.
Cell survival assay was performed in 96-well plates using CellTiter-Glo Luminescent Cell Viability Assay kit (Promega) that measures cellular ATP content. The CellTiter-Glo reagent was diluted by adding 2 volumes of PBS containing 1% Triton X-100. 50 μl of diluted reagent was directly added to 100 μl of cell culture medium per well. Plates were incubated at room temperature for 10 minutes. Luminescence was recorded by Tecan […]luor Plus reader (Tecan). Cell survival was presented as the percentage of viable cells compared with untreated control, and mean±SD was calculated from duplicates. The dox:tox assay of P7C3 analogs was carried out in the HTS Core (University of Texas Southwestern Medical Center) using the EnVison multimode plate reader (Perkin Elmer).

Human NAMPT = biological target: T2, Human NAMPT (Homo sapiens, UniProt P43490); assay: in vitro NAMPT coupled-enzyme assay (NADH at OD340 nm); format: biochemical; conditions: for NAMPT activation: relative reaction rate normalized by the control reaction run prior to compound addition, vehicle 0.98; for activation of recombinant NAMPT enzyme: coupled assay NAMPT, NMNAT, ADH
T2 construct: made in house; host or cells: E. coli
Method: FIGS. 7A-7C. […] (FIG. 7A) P7C3-A20 was incubated at indicated concentrations in a reaction coupled with three enzymes; NAMPT, NMNAT, and ADH (Experimental Procedures). NAMPT activity was recorded for the indicated period of time at OD340 nm by measuring NADH appearance, leading to the indicated concentration-time plot. […] (FIG. 7B) Analysis of the activities of thirty P7C3 analogs was performed to assess their effects on NAMPT enzymatic activity. The reaction rate was calculated as the slope of the concentration-time curve. Relative reaction rate was normalized by the control reaction run prior to compound addition. Data represents the mean of experimental duplicates. Scatter graphs were plotted to compare the ability of compounds to activate NAMPT relative to their ability to compete away P7C3-S326 crosslinking (top scatter plot), ability to protect cells from doxorubicin-mediated toxicity (middle scatter plot), or ability to facilitate NAD restoration in doxorubicin-treated cells (bottom scatter plot). […] Data are expressed as mean±SD of duplicate independent assays.
The enzymatic activity of recombinant NAMPT was monitored in a coupled assay wherein nicotinamide conversion to NMN was followed by sequential production of NAD (via the NMNAT enzyme) and NADH (via alcohol dehydrogenase). To minimize variation, a control reaction was run in each assay prior to compound addition.
Briefly, NAMPT first converted nicotinamide to NMN, which was followed by sequential production of NAD via nicotinamide mononucleotide adenylyl-transferase (NMNAT). NAD was then reduced to NADH by alcohol dehydrogenase (Sigma) using alcohol as the substrate. The resulting NADH was monitored by OD340 nm. […] 10 mM stocks of P7C3 analogs in DMSO were further diluted in ethanol prior to applying to the reaction. To minimize variation, a control reaction was run in each assay prior to compound addition.

[5] = test system: neurons in living animals; conditions: neurogenesis, MPTP model, concussive blast injury; cited from earlier work
[6] = test system: NAD levels in doxorubicin-treated U2OS cells; assay: NAD rebound assay in doxorubicin-treated cells (NAD/NADH Glo); format: cell-based; conditions: 0.5 μM doxorubicin 45 h
Method: FIG. 12. Five-point dose response curves (DRC) of all tested compounds in NAD rebound assay. […] Cellular NAD abundance was determined by NAD/NADH Glo assay kit.
Each chemical variant of P7C3 was co-incubated with doxorubicin on cultured U2OS cells at five doses (0.03 uM, 0.1 uM, 0.3 uM, 1 uM and 3 uM). After 45 hrs incubation, cells were assayed for intracellular levels of NAD (FIG. 12).
Assay was performed following the manufacturer's protocol. NAD/NADH-Glo reagent contains the NAD Cycling Enzyme that converts NAD+ to NADH. In the presence of NADH, the enzyme reductase reduces a proluciferin reductase substrate to form luciferin. Cells were grown in 96- or 384-well plates. 50 μl or 15 μl of NAD/NADH-Glo™ Detection Reagent were added to each well. The resulting luminescence signals were measured by Tecan plate reader or EnVison multimode plate reader (Perkin Elmer).

T2 sequence (P43490 whole entry): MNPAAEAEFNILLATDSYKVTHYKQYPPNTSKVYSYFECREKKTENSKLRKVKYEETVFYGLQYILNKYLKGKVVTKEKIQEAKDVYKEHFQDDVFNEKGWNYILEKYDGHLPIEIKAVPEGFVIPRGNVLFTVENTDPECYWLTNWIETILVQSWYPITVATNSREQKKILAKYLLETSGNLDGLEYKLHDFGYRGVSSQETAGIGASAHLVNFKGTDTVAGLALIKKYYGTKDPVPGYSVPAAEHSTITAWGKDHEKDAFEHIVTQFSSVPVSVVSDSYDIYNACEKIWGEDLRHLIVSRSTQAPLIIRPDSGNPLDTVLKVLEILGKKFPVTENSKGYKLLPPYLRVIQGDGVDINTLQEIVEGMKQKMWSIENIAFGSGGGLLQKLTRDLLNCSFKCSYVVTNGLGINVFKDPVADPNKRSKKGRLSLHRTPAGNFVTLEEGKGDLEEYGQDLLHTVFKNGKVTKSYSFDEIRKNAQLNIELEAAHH
T1 sequence (P43490 whole entry): as above

SMILES | Neurogenesis # BrdU+ Cells (X10E06)/mm3 Dentate Gyrus [1] | Binding competition (p70 (NAMPT)) | enhancement in BrdU-positive hippocampal neurons ([2]; BrdU pulsed one day, then P7C3 for a month) | enhanced level of BrdU-positive neurons ([2]; week-long dose of P7C3) | half-life, volume of distribution and brain penetration [3] | toxicity on prolonged administration [4] | body weight relative to vehicle-treated controls (aged Fisher rats) | cognitive decline (aged Fisher rats) | protection from doxorubicin-mediated toxicity (dox:tox assay) (U2OS cells) | NAMPT activation (Human NAMPT) | activity in the three in vivo assays of neuroprotection [5] | activation of recombinant NAMPT enzyme (Human NAMPT) | rebound of NAD levels (NAD/NADH-Glo kit) [6]
OC(CNc1ccccc1)Cn1c2ccc(Br)cc2c2cc(Br)ccc21 (centres unmarked) [P7C3] | 15.0 (X10E06)/mm3 | 2.6 | 500% | two-fold | favorable | not overtly toxic to rodents | maintained body weight | abrogation of cognitive decline |  |  |  |  | 
COc1cccc(NC[C@@H](F)Cn2c3ccc(Br)cc3c3cc(Br)ccc32)n1 [(+)-S243] | 10.0 (X10E06)/mm3 | 4.2 |  |  |  |  |  |  | considerably less active | 1.13 | far less active |  | 
COc1cccc(NC[C@H](F)Cn2c3ccc(Br)cc3c3cc(Br)ccc32)n1 [(−)-S243, (S)—N-(3-(3,6-Dibromo-9H-carbazol-9-yl)-2-fluoropropyl)-6-methoxypyridin-2-amine] | 18.1 (X10E06)/mm3 | 4.8 |  |  |  |  |  |  | protective | 1.33 | active | more active in stimulating NAMPT than the racemix mix | 
COc1cccc(NCC(F)Cn2c3ccc(Br)cc3c3cc(Br)ccc32)n1 (racemic) [S243, N-(3-(3,6-dibromo-9H-carbazol-9-yl)-2-fluoropropyl)-6-methoxypyridin-2-amine] |  | 2.2 |  |  |  |  |  |  |  | 1.26 |  | more active than the (+)P7C3-S243 enantiomer | NAD rebound
